According to patent publication US8586533B2, “Treatment of early-stage osteoarthritis” (Kaohsiung Medical University, priority 2008, dated 2013):

Legend:
[1] = test system: human articular chondrocytes; assay: Quantitative real-time PCR of mRNA levels in azaC-induced terminal differentiation culture model; assay type: cell-based
Protocol: Chondrocyte cultures were divided into 4 groups. […] Louis, Mo.) for 48 hours.

rat articular cartilage [2] = assay: Papain-induced OA rat model, Safranin O-stained GAG histomorphometry; assay type: in vivo, Sprague-Dawley rats; conditions: for GAG level (red:total ratio) versus OA group: p<0.01
Protocol: (§1) Fifty-four 12-week-old male Sprague-Dawley rats (250-300 gm) were purchased from BioLASCO Taiwan and housed under standard laboratory conditions (temperature 24° C., 12-hour light-dark cycle) with food and water ad libitum. The animals were acclimatized to the laboratory environment for 1 week before the experiments.
(§2) Rats were divided into the following 3 groups: OA (OA induction without PTH [1-34] treatment) (n=18), OA plus PTH (PTH [1-34] treatment followed by OA induction) (n=18), and PTH (PTH [1-34] treatment without OA induction) (n=18). Each left knee, which served as the contralateral control joint, was injected with vehicle without PTH treatment or OA induction. The right knees were the study joints. OA was induced in the right knees of rats in the OA and OA plus PTH groups with intraarticular injections of 20 μl of 4% papain solution and 20 μl of 0.03M cysteine. The injections were given with a 26-gauge needle via the patellar tendon on days 1, 4, and 7 of the experiment (see e.g., Nucl Med Commun (1996) 17(6): 529-35). In the OA plus PTH group, after OA induction, the right knees were injected intraarticularly with 40 μl of 10 nM PTH (1-34) every 3 days until rats were killed. In the PTH group, the same PTH (1-34) treatment was performed but without OA induction. Six rats from each group were killed by CO2 inhalation at the same time points as rats in the OA plus PTH group, in which PTH (1-34) treatment was given for 1, 3, and 5 weeks.
(§3) After rats were killed, the knees were harvested, and the tibia plateaus with articular cartilage were collected and fixed with 10% neutral buffered formalin prior to histologic preparation. The samples were then decalcified in 10% formic acid/PBS. The decalcified tibia articular samples were paraffin embedded, and 5-μm microsections in the coronary plane were prepared. GAG was stained with Safranin O-fast green (1% Safranin O counterstained with 0.75% hematoxylin and then 1% fast green) (Sigma, St. Louis Mo.). Localized type II collagen and type X collagen were immunostained. Apoptotic cells in cartilage were TUNEL stained.
GAG was stained red by Safranin O, and the total and red-stained areas in the articular cartilage of each proximal tibia were measured using Image-Pro Plus software, version 5.0. The ratio of red stained area to total area (red:total) in each group was calculated.
Methods are as described above in the Sections entitled “Animal Experiments” and “Osteoarthritis Induction and PTH Treatment” except that the concentration of the administered dose of PTH (1-34) was 5 nM, 10 nM, or 100 nM. Safranin O-stained articular cartilage in the proximal tibia from the contralateral control joints of rats in the OA group and the study joints of rats in the OA and OA plus PTH groups are measured for the ratio of Safranin O-stained area to total area. The ratios of Safranin O-stained area to total area (red/total) among all groups after 5 weeks of PTH treatment are compared. Bars show the mean and SEM of 6 samples. Data are evaluated by one-way analysis of variance, and multiple comparisons are performed using Scheffe's method. **=P<0.01: the control joints versus study joints in the OA group at the indicated time point; ##=P<0.01: the OA joints versus study joints in groups of OA plus PTH 5 nM, OA plus PTH 10 nM, and OA plus PTH 100 nM.

rat articular cartilage [3] = assay: Papain-induced OA rat model, type II and type X collagen immunohistochemistry; assay type: in vivo, Sprague-Dawley rats; conditions: OA plus PTH group, 10 nM intraarticular
Protocol: as §1, §2, §3
The tibia articular sections were rehydrated, and the endogenous peroxidase in tissue was blocked with 3% hydrogen peroxide. Samples were digested by enzymes for epitope retrieval before incubation with primary antibodies (see e.g. J Histochem Cytochem (2002) 50(8): 1049-58). The optimal condition for enzyme digestion for type II collagen immunostaining was a mixture of 2.5% hyaluronidase and 1 mg/ml of Pronase in PBS (pH 7.4; Sigma) at 37° C. for 1 hour. […] The relative density of immunostaining (density/area; mean±SEM area 25.44±2.77 mm^2) was measured using Image-Pro Plus software, version 5.0 (Media Cybernetics).

PTH (1-34): 34-amino acid long peptide made up of amino-terminal amino acids 1 through 34 of human parathyroid hormone
Col2a1 expression among azaC plus PTH, azaC and control groups ([1]; 10 nM, 10 days of treatment): no significant difference
Expression of aggrecan, Col2a1, Col10a1, ALP, and IHH genes versus control group ([1]; PTH group (no azaC), 10 nM, 3-10 days of treatment): not significantly different
Bcl-2 expression ([1]; PTH group (no azaC), 10 nM, 3-10 days of treatment, not statistically significant): 1.7 times that in control
azaC-induced changes in levels of mRNA for Col10a1, ALP, and IHH ([1]; azaC plus PTH cultures, 10 nM, 3, 7 and 10 days of treatment): significantly eliminated
Expression of Col10a1 and ALP versus control cultures ([1]; azaC plus PTH cultures, 10 nM, day 3 of treatment, P<0.01): lower
Expression of ALP versus control cultures ([1]; azaC plus PTH cultures, 10 nM, day 10 of treatment, P<0.05): higher
IHH mRNA level, lower than control cultures ([1]; azaC plus PTH group, 10 nM, 3-10 days of treatment): 47-71%
aggrecan mRNA level versus azaC group ([1]; azaC plus PTH group, 10 nM, 3 and 7 days of treatment (P<0.05, P<0.01)): significantly higher
Col2a1 expression versus azaC group ([1]; azaC plus PTH group, 10 nM, 3 days of treatment, P<0.05): significantly higher
Col2a1 expression versus azaC (P<0.01) or control (P<0.05) group ([1]; azaC plus PTH group, 10 nM, 7 days of treatment): higher
aggrecan mRNA level versus azaC group ([1]; azaC plus PTH group, 10 nM, 10 days of treatment): not different
Bax expression ([1]; azaC plus PTH group, 10 nM, 14 days): 1.6 times that in the control cultures
ratio of Bcl-2 to Bax versus control group ([1]; azaC plus PTH group, 10 nM, after 3 days (P<0.05) and 10 days (P<0.01)): higher
Bcl-2 expression ([1]; azaC plus PTH group, 10 nM, after 3 days of treatment, P<0.05): 2.1 times that of control
Bcl-2 expression ([1]; azaC plus PTH group, 10 nM, after 7 days of treatment, P<0.05): 2.1 times control
Bcl-2 expression ([1]; azaC plus PTH group, 10 nM, after 10 days of treatment, P<0.01): 6.0 times control
GAG level (red:total ratio) versus OA group (rat articular cartilage [2]; 5 nM, intraarticular every three days, 5 weeks): significantly higher
GAG level (red:total ratio) versus OA group (rat articular cartilage [2]; 10 nM, intraarticular every three days, 5 weeks): significantly higher
GAG level (red:total ratio) versus OA group (rat articular cartilage [2]; 100 nM, intraarticular every three days, 5 weeks): significantly higher
GAG level, control group versus PTH-treated groups (rat articular cartilage [2]; 5, 10, or 100 nM, intraarticular every three days, 5 weeks): no significant difference
red:total ratio versus contralateral control (rat articular cartilage [2]; OA plus PTH group, 10 nM intraarticular, 1 and 3 weeks, P<0.01): significantly lower
red:total ratio versus contralateral control cartilage (rat articular cartilage [2]; OA plus PTH group, 10 nM intraarticular, 5 weeks): not significantly different
red:total ratio (Safranin O-stained area to total area, GAG) versus OA group (rat articular cartilage [2]; OA plus PTH group, intraarticular 40 μl of 10 nM every 3 days, 1, 3, and 5 weeks, P<0.01): significantly higher
red:total ratio, study cartilage versus contralateral control cartilage (rat articular cartilage [2]; PTH group (no OA induction), 10 nM intraarticular, any time point): no significant differences
Immunolocalized type X collagen in cartilage compared with OA group (rat articular cartilage [3]; 3 and 5 weeks): less evident
density of immunolocalized type II collagen versus contralateral control cartilage (rat articular cartilage [3]; 3 weeks): not different
density of immunolocalized type II collagen versus OA group (rat articular cartilage [3]; 3 weeks, P<0.05): significantly higher
density of immunolocalized type II collagen versus OA group (P<0.01) and contralateral control (P<0.05) (rat articular cartilage [3]; 5 weeks): significantly higher
